In patent publication US12324807B2, “Combination therapy for PI3K-associated disease or disorder” (Cornell University, priority 2018, dated 2025):
pIC50: −log10 of the molar value.

Tests used:
AKT1/2/3 = details: from Selleck Chem website; read-out: IC50 of primary target; cited from earlier work
[1] = tested on: syngeneic K8484 KPC allografted tumors; assay: glucose/insulin feedback after single dose of BKM120 in mice with KPC allografts; assay type: in vivo; details: pretreatment before a single treatment with BKM120; for insulin released in response to BKM120 (c-peptide): c-peptide after 3 hours; for growth signaling through mTORC1 in the tumor (pS6): tumors harvested at 90 minutes
tumor models = assay: drug efficacy of PI3K pathway agents with modulation of glucose metabolism in murine tumor models; assay type: in vivo, mice
[2] = tested on: PIK3CA+MYC mutant murine breast tumor allografts, ES-278; assay: ES-278 breast tumor allografts with or without keto diet; assay type: in vivo, mice; details: combined with ketogenic diet
Source text: For solid tumor studies, Nude (genotype) and C57/BL6 mice were purchased at 8 weeks of age from Jackson laboratories (Bar Harbor, ME).

IGF1R/INSR = details: from Selleck Chem website; read-out: IC50 of primary target; cited from earlier work
[3] = tested on: MLL-AF9 driven Acute Myeloid Leukemia; assay: syngeneic model of AML treated with BKM120 and ketogenic diet; assay type: in vivo, mice; details: BKM120 with ketogenic diet started before or with BKM120
Protocol: For AML studies, 10-12 weeks old male C57BL/6J mice were used for MLL-AF9 Ds-Red AML study (Approved protocol AC-AAAQ5405). For pre-treatment study with MLL-AF9 Ds-Red cells, keto and Keto/BKM group mice were given a ketogenic diet for 10 days prior to injection with MLL-AF9 Ds-Red cells (2×10^5 per mouse in 200 ul) via lateral tail vein. The day after iv injection, the mice were given 0.5% carboxymethyl cellulose (CMC) as vehicle control or BKM120 (37.5 mg/kg) by oral gavage for two weeks (5 out of 7 days). The mice were euthanized after two-week treatment to check the bone marrow for AML progress. The tumor progress was also monitored via IVIS spectrum machine.
For co-current treatment studies with MLL-AF9 Ds-Red cells, the mice were injected with MLL-AF9 Ds-Red cells (2×10^5 per mouse in 200 ul) via lateral tail vein. The day after iv injection, the mice were given vehicle or BKM120 (37.5 mg/kg) by oral gavage for two weeks. The Keto or Keto/BKM group were changed to a ketogenic diet on the same day. The mice were euthanized after two-week treatment to check the bone marrow for AML progress.
To check if Keto/BKM treatment affects the AML engraftment, Keto and Keto/BKM group mice were given a ketogenic diet for 10 days, then treated with vehicle or BKM120 by oral gavage for two weeks. […]

KPC allografts = KPC allografts treated with BKM120 and OSI-906; assay type: in vivo, mice; details: BKM120 combined with OSI-906, vs either drug alone
KPC K8484 tumors = assay: KPC K8484 allografts treated with BYL-719 alone or combined: tumor response and survival; assay type: in vivo, mice
SGLT-2 = SGLT-2 (Homo sapiens (Human), UniProt P31639); details: read-out: IC50 of primary target; from Selleck Chem website; cited from earlier work
KPC allografted tumors = assay type: in vivo; details: insulin added to ketogenic diet plus BYL-719
[4] = tested on: HCT116 PTEN knockout (KO) cells; assay: proliferation with PI3K inhibitors and insulin; assay type: cell-based, Human; details: insulin 10 ng/ml in presence of PI3K inhibitors GDC-0032, BYL-719
[5] = tested on: BT-549 breast cancer cells; assay: proliferation in minimal growth media with BKM120 and insulin; assay type: cell-based, Human; details: insulin 10 ng/ml
KPC cells = assay: signaling and proliferation of KPC cells with PI3K inhibitor and insulin; assay type: cell-based, Mouse
Protocol: To test whether or not these spikes in insulin were stimulating PI3K signaling in the context of PI3K inhibition, KPC cells were treated in vitro with the PI3K inhibitors in the presence or absence of 10 ng/ml insulin, the level observed in the mice within 15-30 min after drug administration (FIG. 1D).
For signaling assays, cells were washed 1× in PBS and placed in starvation media (−FBS) for 6-18 hours depending upon cell line and treated 1 hour prior to harvesting with PI3K inhibitors as indicated alone or in combination with insulin 10 minutes prior to harvesting. Three-dimensional culture and dose response experiments of patient derived organoids were run as previously described. In brief, ˜1000 cells were plated in 10 ul of 1:1 matrigel to culture media in 96 well angiogenesis plates and allowed to solidify for 30 min at 37 degrees before 70 ul of culture media was added. Organoids were then treated in triplicate in a log scale dose response and CellTiter-Glo assay (Promega) was run at 96 hours to determine the IC50 values. Knockdown of insulin receptor was achieved using a doxycycline inducible shRNA strategy. For generation of miR-E shRNAs, 97-mer oligonucleotides were purchased (IDT Ultramers) coding for predicted shRNAs using an siRNA predictional tool Splash RNA (see website at splashrna.mskcc.org/).

[6] = tested on: ES272 Pik3ca mutant breast cancer allograft; assay: Pik3ca mutant breast allografts, ketogenic diet, BYL-719 and exogenous insulin; assay type: in vivo, mice; details: 0.4 mU insulin 15 minutes after each dose of PI3K inhibitor
Protocol: To further test whether the improved response to PI3K inhibitors while on a ketogenic diet is a consequence of lowering blood insulin levels, the inventors attempted to “rescue” the PI3K reactivation using exogenous insulin. A cohort of the mice bearing Pik3ca mutant breast allografts were treated with the combination of a ketogenic diet and BYL-719, and then given 0.4 mU of insulin 15 minutes after each dose of PI3K inhibitor (FIG. 4B).

[7] = tested on: PC-3 prostate adenocarcinoma cells; assay: proliferation in minimal growth media with BKM120 and insulin; assay type: cell-based; details: insulin 10 ng/ml
[8] = tested on: MDA-MB-468 breast cancer cells; assay: as above; assay type: cell-based, Human; details: insulin 10 ng/ml

In the case of `NC1(c2ccc(-c3nc4ccn5c(=O)[nH]nc5c4cc3-c3ccccc3)cc2)CCC1` [MK2206], the pIC50 (AKT1/2/3) is listed as 8.10.

For `CN(C)C(=N)NC(=N)N` [metformin, Metformin], the “PI3K inhibitor-induced elevation in blood glucose (hyperglycemia)” value [1] was “only minimal impact”, the “insulin released in response to BKM120 (c-peptide)” value [1] was “only minimal impact” and the “growth signaling through mTORC1 in the tumor (pS6)” value [1] was “only minimal impact”.

In the case of `CS(=O)(=O)N1CCN(Cc2cc3nc(-c4cccc5[nH]ncc45)nc(N4CCOCC4)c3s2)CC1` [Pictilisib], the drug efficacy (tumor models) was “improved drug efficacy”.

For `COc1c(OCCCN2CCOCC2)ccc2c1N=C(NC(=O)c1cnc(N)nc1)N1CCN=C21` [Copanilisib, Copanlisib], the drug efficacy (tumor models) was “improved drug efficacy”.

For `C[C@]1(O)C[C@@H](c2nc(-c3ccc4ccc(-c5ccccc5)nc4c3)c3c(N)nccn32)C1` [Linsitinib], the “treatment efficacy (tumor volume)” value [2] is given as “significantly improved” and the pIC50 (IGF1R/INSR) is given as 7.46.

In the case of `Nc1cc(C(F)(F)F)c(-c2cc(N3CCOCC3)nc(N3CCOCC3)n2)cn1` [Buparlisib], the “efficacy (survival)” value [3] was “significantly enhanced”, the drug efficacy (tumor models) was “improved drug efficacy” and the “growth of KPC allografts” value (KPC allografts) was “more effective response on the growth of KPC allografts than either drug alone”.

For `Cc1nc(NC(=O)N2CCC[C@H]2C(N)=O)sc1-c1ccnc(C(C)(C)C(F)(F)F)c1` [Apelisib, Alpelisib], the drug efficacy (tumor models) was “improved drug efficacy” and the “response of KPC allografts” value (KPC K8484 tumors; BYL-719 combined with metformin, SGLT2i or ketogenic diet, concordant with ability to reduce serum insulin) was “enhanced response of KPC allografts”.

For `Cc1ccc([C@@H]2OC(CO)[C@@H](O)C(O)C2O)cc1Cc1ccc(-c2ccc(F)cc2)s1` (some centres unmarked) [Conagliflozin, Canagliflozin], the pIC50 (SGLT-2) is given as 8.66.

In the case of `Cc1c(CN2CCN(C(=O)[C@H](C)O)CC2)sc2c(N3CCOCC3)nc(-c3cnc(N)nc3)nc12` [Apitolisib], the drug efficacy (tumor models) was “improved drug efficacy”.

In the case of insulin, the tumor growth (KPC allografted tumors) was “rescued tumor growth”, the “proliferation (percent confluence)” value [4] was “restore normal proliferation” and the “growth (proliferation)” value [5] was “partially rescued”. The “PI3K signaling (pAKT, pS6)” value (KPC cells; 10 ng/ml insulin in continued presence of PI3K inhibitors) was “partially rescue PI3K signaling”, the cellular proliferation (KPC cells; 10 ng/ml insulin with BKM120 (1 uM)) was “partial recovery of cellular proliferation” and the “therapeutic benefit of ketogenic diet plus BYL-719” value [6] was “dramatically reduced the therapeutic benefit”. For the same compound, the “growth (proliferation)” value [7] was “partially rescued” and the “growth (proliferation)” value [8] was “partially rescued”.

For `Cc1nc(-c2cn3c(n2)-c2ccc(-c4cnn(C(C)(C)C(N)=O)c4)cc2OCC3)n(C(C)C)n1` [Taselisib], the “treatment efficacy (tumor volume)” value [2] was “significantly improved” and the drug efficacy (tumor models) was “improved drug efficacy”.

For `Cc1ccc([C@@H]2O[C@H](CO)[C@@H](O)[C@H](O)[C@H]2O)cc1Cc1ccc(-c2ccc(F)cc2)s1` [Conagliflozin, Canagliflozin], the overall survival (KPC K8484 tumors; added to treatment with BYL-719, vs BYL-719 alone) was “increases overall survival”, the “PI3K inhibitor-induced elevation in blood glucose (hyperglycemia)” value [1] was “decreased the resulting hyperglycemia” and the “insulin released in response to BKM120 (c-peptide)” value [1] was “reduced the total insulin that was released”. For the same compound, the “growth signaling through mTORC1 in the tumor (pS6)” value [1] was “reduced signaling through mTORC1 in the tumor”.
